In ChEMBL document CHEMBL4351013, “Carboxamides vs. methanimines: Crystal structures, binding interactions, photophysical studies, and biological evaluation of (indazole-5-yl)methanimines as monoamine oxidase B and acetylcholinesterase inhibitors” (Eur J Med Chem, 2019):

Key:
[1] = molecular target: T1, Amine oxidase [flavin-containing] B (Homo sapiens, UniProt P27338); experiment: biochemical; format: cell-based, BTI-TN-5B1-4
T1 sequence (P27338 whole entry): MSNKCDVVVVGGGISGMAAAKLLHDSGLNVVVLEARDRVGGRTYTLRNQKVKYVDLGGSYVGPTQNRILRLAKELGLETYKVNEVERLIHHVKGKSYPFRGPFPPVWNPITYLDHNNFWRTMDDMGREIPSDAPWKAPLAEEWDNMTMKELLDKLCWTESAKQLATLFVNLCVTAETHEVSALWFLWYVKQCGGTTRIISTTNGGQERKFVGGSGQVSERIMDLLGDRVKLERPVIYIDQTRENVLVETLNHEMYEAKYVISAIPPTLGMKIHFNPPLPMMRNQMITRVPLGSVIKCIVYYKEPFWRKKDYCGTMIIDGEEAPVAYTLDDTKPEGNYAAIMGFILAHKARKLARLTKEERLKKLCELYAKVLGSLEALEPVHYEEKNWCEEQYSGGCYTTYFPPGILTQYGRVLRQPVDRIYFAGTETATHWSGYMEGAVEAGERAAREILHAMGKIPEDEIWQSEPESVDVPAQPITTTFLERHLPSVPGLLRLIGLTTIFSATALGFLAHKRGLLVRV
Description: Inhibition of human recombinant MAO-B expressed in baculovirus infected BTI-TN-5B1-4 insect cells assessed as decrease in H2O2 production using p-tyramine as substrate incubated for 20 mins by horse-radish peroxidase/amplex red-based fluorescence method

[2] = species: Homo sapiens; experiment: Selectivity index, ratio of IC50 for human recombinant MAO-A expressed in baculovirus infected BTI-TN-5B1-4 cells to IC50 for human recombinant MAO-B expressed in baculovirus infected BTI-TN-5B1-4 cells
[3] = molecular target: Cholinesterase (Homo sapiens) (UniProt P06276); experiment: Inhibition of BuChE in human serum using S-butyrylthiocholine iodide as substrate at 100 uM preincubated with enzyme for 10 mins followed by substrate addition measured for 15 mins by Ellman's method relative to control; format: cell-free
Sequence of Cholinesterase (Homo sapiens) (P06276 whole entry): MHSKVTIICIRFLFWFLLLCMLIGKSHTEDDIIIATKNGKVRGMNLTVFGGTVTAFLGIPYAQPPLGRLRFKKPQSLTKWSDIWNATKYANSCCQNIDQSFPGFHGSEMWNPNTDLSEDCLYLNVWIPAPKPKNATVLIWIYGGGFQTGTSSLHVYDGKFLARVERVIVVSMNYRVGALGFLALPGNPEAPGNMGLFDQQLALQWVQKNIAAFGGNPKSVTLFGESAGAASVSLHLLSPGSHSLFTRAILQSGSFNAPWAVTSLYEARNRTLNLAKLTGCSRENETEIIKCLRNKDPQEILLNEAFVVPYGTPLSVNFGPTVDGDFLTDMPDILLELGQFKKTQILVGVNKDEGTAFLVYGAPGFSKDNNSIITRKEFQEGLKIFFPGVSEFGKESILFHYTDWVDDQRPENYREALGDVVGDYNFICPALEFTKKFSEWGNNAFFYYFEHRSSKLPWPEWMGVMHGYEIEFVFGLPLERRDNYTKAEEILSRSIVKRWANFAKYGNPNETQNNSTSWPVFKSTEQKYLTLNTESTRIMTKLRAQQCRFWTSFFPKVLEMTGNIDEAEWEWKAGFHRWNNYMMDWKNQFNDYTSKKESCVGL

[4] = molecular target: T2, Amine oxidase [flavin-containing] A (Homo sapiens, UniProt P21397); experiment: biochemical
T2 sequence (P21397 whole entry): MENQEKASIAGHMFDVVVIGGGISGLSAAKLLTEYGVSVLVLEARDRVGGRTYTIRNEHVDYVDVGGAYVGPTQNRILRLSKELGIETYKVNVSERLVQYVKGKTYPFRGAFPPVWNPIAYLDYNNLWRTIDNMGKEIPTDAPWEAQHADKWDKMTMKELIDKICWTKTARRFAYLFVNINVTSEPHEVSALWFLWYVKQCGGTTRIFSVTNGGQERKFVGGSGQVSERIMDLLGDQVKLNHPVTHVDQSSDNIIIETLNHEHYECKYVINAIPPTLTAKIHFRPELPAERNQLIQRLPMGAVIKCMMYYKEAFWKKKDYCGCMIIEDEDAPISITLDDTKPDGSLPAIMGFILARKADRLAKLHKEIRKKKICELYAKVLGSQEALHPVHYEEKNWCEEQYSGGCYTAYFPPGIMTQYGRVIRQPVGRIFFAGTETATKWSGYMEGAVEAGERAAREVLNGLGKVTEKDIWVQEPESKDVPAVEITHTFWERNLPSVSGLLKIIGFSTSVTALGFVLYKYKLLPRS
Description: Inhibition of human recombinant MAO-A expressed in baculovirus infected BTI-TN-5B1-4 insect cells assessed as decrease in H2O2 production using p-tyramine as substrate incubated for 20 mins by horse-radish peroxidase/amplex red-based fluorescence method

[5] = molecular target: T1, Amine oxidase [flavin-containing] B; experiment: Potency index, ratio of selegiline IC50 to compound IC50 for human recombinant MAO-B expressed in baculovirus infected BTI-TN-5B1-4 insect cells using p-tyramine as substrate
[6] = Cytotoxicity against human HepG2 cells assessed as cell viability at 50 uM measured after 72 hrs by MTT assay relative to control; format: cell-based; conditions: read-out: Activity
[7] = system: HepG2; experiment: Cytotoxicity against human HepG2 cells assessed as mitochondrial dysfunction at 25 to 50 uM; format: cell-based; conditions: hepg2, 50 µM
[8] = Stability of the compound in MeOH assessed as compound purity level at 50 uM measured under daylight exposure for 76 days by LC/ESI-MS analysis; format: physicochemical; conditions: methanol; read-out: Stability
[9] = Stability of the compound in MeOH at 50 uM measured under daylight exposure for 3 days by UV-visible spectra analysis; format: physicochemical; conditions: 72 h
[10] = Stability of the compound in DMSO at 50 uM measured under daylight exposure for 76 days by UV-visible spectra analysis; format: physicochemical; conditions: 1824 h
[11] = Stability of the compound in ACN at 50 uM measured under daylight exposure for 76 days by UV-visible spectra analysis; format: physicochemical; conditions: 1824 h
[12] = Stability of the compound in dry MeOH at 1 to 10 mM measured under daylight exposure for 24 to 96 hrs by LC/ESI-MS analysis; format: physicochemical; conditions: 10000 µM
[13] = Stability of the compound in dry MeOH assessed as dimers at 1 mM measured under daylight exposure for >96 hrs by LC/ESI-MS analysis; format: physicochemical; conditions: 1000 µM
[14] = Stability of the compound in dry MeOH at 1 mM measured under daylight for 62 days by LC/ESI-MS analysis; format: physicochemical; conditions: 1488 h, 1000 µM
[15] = Stability of the compound in dry MeOH assessed as compound crystallization at 10 mM measured under daylight for 43 hrs by LC/ESI-MS analysis; format: physicochemical; conditions: 10000 µM
[16] = molecular target: Acetylcholinesterase (Homo sapiens, UniProt P22303); experiment: Inhibition of AChE in human erythrocytes using acetylthiocholine iodide as substrate preincubated with enzyme for 10 mins followed by substrate addition measured for 15 mins by Ellman's method; format: cell-based
Sequence of Acetylcholinesterase (P22303 whole entry): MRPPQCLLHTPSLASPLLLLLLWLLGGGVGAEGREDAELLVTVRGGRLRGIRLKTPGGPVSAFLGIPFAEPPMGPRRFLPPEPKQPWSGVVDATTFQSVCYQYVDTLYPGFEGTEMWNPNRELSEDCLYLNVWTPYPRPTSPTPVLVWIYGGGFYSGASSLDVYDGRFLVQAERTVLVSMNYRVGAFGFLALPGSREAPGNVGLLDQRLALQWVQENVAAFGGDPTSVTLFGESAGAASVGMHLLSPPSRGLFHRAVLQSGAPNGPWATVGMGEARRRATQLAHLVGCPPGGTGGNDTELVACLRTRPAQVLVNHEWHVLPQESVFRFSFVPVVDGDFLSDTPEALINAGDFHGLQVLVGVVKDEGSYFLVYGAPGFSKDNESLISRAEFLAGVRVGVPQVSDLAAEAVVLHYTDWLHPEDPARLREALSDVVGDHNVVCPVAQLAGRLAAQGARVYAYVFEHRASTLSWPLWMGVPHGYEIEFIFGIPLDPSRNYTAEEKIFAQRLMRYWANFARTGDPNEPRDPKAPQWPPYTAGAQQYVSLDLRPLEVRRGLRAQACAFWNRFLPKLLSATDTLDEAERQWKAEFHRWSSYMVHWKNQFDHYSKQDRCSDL

[17] = molecular target: T1, Amine oxidase [flavin-containing] B; experiment: Competitive inhibition of human recombinant MAO-B expressed in baculovirus infected BTI-TN-5B1-4 insect cells using p-tyramine as substrate by Dixon- plot analysis
[18] = molecular target: T1, Amine oxidase [flavin-containing] B; experiment: Competitive inhibition of human recombinant MAO-B expressed in baculovirus infected BTI-TN-5B1-4 insect cells using p-tyramine as substrate by Lineweaver-Burk plot analysis

Structure (SMILES) | Ki [1] | Ratio IC50 [2] | inhibition [3] | IC50 [4] | other results
Fc1ccc(/N=C/c2ccc3[nH]ncc3c2)cc1Cl | 0.93 nM | 4760 | 4.56% | > 10000 nM | –
O=C(Nc1ccc(Cl)c(Cl)c1)c1ccc2[nH]ncc2c1 | – | 17100 | 11.3% | – | Ratio IC50 [5]: 9; viability at 72 h, 50 µM [6]: 66.3%; Activity [7]: Non-Toxic
COCCn1ncc2cc(C(=O)Nc3ccc(Cl)c(Cl)c3)ccc21 | – | > 2660 | 9.58% | – | Ki [4]: 0.48 nM
Fc1cc(/N=C/c2ccc3[nH]ncc3c2)ccc1Cl | 0.84 nM | 5240 | 6.97% | – | –
Clc1cc(/N=C/c2ccc3[nH]ncc3c2)cnc1Cl | 0.57 nM | > 7810 | 9.64% | > 10000 nM | IC50 [1]: 1.28 nM; Ratio IC50 [5]: 4.3; remaining at 1824 h, 50 µM [8]: 68.1%; Stability [9]: Stable; Stability [10]: Stable; Stability [11]: Stable; Stability [12]: Stable; Stability [13]: Unstable; Stability [14]: Unstable; Stability [15]: Unstable
COCCn1ncc2cc(/C=N/c3ccc(Cl)c(Cl)c3)ccc21 | 0.57 nM | 3160 | 2.27% | > 10000 nM | IC50 [1]: 1.29 nM
Cn1ncc2cc(C(=O)Nc3ccc(Cl)c(Cl)c3)ccc21 | – | – | 11.1% | – | IC50 [16]: 78300 nM
O=C(Nc1ccc(Cl)c(F)c1)c1ccc2[nH]ncc2c1 | 0.29 nM | 15000 | 2.23% | – | –
O=C(Nc1cnc(Cl)c(Cl)c1)c1ccc2[nH]ncc2c1 | 2.39 nM | > 1840 | 9.23% | > 10000 nM | –
O=C(Nc1ccc(F)c(Cl)c1)c1ccc2[nH]ncc2c1 | – | – | 7.21% | – | –
Clc1ccc(/N=C/c2ccc3[nH]ncc3c2)cc1Cl | – | – | 9.01% | > 10000 nM | viability at 72 h, 50 µM [6]: 80.6%; Stability [10]: Stable; Stability [11]: Stable; Activity [7]: Non-Toxic
Cn1ncc2cc(/C=N/c3ccc(Cl)c(Cl)c3)ccc21 | 0.46 nM | 9710 | 8.57% | > 10000 nM | Ki [17]: 0.63 nM; inhibition (INH) [18]: Active
